Source: patent US10266526B2, “Substituted 1,2,3-triazoles as SMYD inhibitors for treating cancer” (EPIZYME, INC., priority 2014, dated 2019)

Target: SMYD2 (Homo sapiens (Human), UniProt Q9NRG4)
Test: SMYD2 biochemical assay (SMYD2 enzyme assay on peptide substrate, 3H-SAM Flashplate)
Conditions: read-out: SMYD2 Biochem IC50; IC50 values are an average of n = 1 to n = 50

SMYD2, sequence (Q9NRG4 whole entry): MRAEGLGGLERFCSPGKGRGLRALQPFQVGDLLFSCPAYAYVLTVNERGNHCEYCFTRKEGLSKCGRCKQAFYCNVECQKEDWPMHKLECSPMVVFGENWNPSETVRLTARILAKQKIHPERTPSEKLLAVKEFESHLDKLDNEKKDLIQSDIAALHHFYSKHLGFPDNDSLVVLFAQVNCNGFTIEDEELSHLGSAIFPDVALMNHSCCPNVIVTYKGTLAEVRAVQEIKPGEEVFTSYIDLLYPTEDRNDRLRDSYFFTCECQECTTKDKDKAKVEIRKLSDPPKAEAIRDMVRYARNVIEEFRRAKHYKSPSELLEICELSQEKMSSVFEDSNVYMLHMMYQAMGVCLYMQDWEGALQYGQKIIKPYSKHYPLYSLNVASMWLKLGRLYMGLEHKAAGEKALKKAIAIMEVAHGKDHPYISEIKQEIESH

| SMILES | IC50 [µM] |
| --- | --- |
| CC(c1ccc2[nH]nc(-c3ccccc3Cl)c2c1)N1CC(NC(=O)c2cn(C3CC3)nn2)C1 (centres unmarked) [compound 920, N-(1-(1-(3-(2-chlorophenyl)-1H-indazol-5-yl)ethyl)azetidin-3-yl)-1-cyclopropyl-1H-1,2,3-triazole-4-carboxamide] | > 50 |
| CN(C)CCCNC(=O)c1cn(C2CC2)nn1 [compound 921, 1-cyclopropyl-N-(3-(dimethylamino)propyl)-1H-1,2,3-triazole-4-carboxamide] | 5.4 |
| CC(c1ccc(CNc2ccccc2)cc1)N1CC(NC(=O)c2cn(C3CC3)nn2)C1 (centres unmarked) [compound 922, 1-cyclopropyl-N-(1-(1-(4-((phenylamino)methyl)phenyl)ethyl)azetidin-3-yl)-1H-1,2,3-triazole-4-carboxamide] | 0.65 |
| COc1ccc(C(C)N2CC(NC(=O)c3cn(C4CC4)nn3)C2)nc1 (centres unmarked) [compound 923, 1-cyclopropyl-N-(1-(1-(5-methoxypyridin-2-yl)ethyl)azetidin-3-yl)-1H-1,2,3-triazole-4-carboxamide] | 2.7 |
| CC(c1ccc(OCC2CCNCC2)cc1)N1CC(NC(=O)c2cn(C3CC3)nn2)C1 (centres unmarked) [compound 925, 1-cyclopropyl-N-(1-(1-(4-(piperidin-4-ylmethoxy)phenyl)ethyl)azetidin-3-yl)-1H-1,2,3-triazole-4-carboxamide] | 4.3 |
| O=C(NC1CN(Cc2cnn(Cc3ccc(Cl)cc3)c2)C1)c1nc(C2CC2)c[nH]1 [compound 927, N-(1-((1-(4-chlorobenzyl)-1H-pyrazol-4-yl)methyl)azetidin-3-yl)-4-cyclopropyl-1H-imidazole-2-carboxamide] | 0.011 |
| Cn1cc(COc2ccc(CN3CC(NC(=O)c4cc(C5CC5)cnn4)C3)cc2)cn1 [compound 928, 5-cyclopropyl-N-(1-(4-((1-methyl-1H-pyrazol-4-yl)methoxy)benzyl)azetidin-3-yl)pyridazine-3-carboxamide] | 0.61 |
| O=C(NC1CN(Cc2cnn(Cc3ccc(Cl)cc3)c2)C1)c1cc(C2CC2)cnn1 [compound 929, N-(1-((1-(4-chlorobenzyl)-1H-pyrazol-4-yl)methyl)azetidin-3-yl)-5-cyclopropylpyridazine-3-carboxamide] | 0.0012 |
| O=C(NC1CN(Cc2cnn(Cc3ccc(Cl)cc3)c2)C1)c1cc(C2CC2)ccn1 [compound 930, N-(1-((1-(4-chlorobenzyl)-1H-pyrazol-4-yl)methyl)azetidin-3-yl)-4-cyclopropylpicolinamide] | 0.0033 |
| O=C(NC1CN(Cc2cn(Cc3ccccc3)nn2)C1)c1cn(C2CC2)nn1 [compound 931, N-(1-((1-benzyl-1H-1,2,3-triazol-4-yl)methyl)azetidin-3-yl)-1-cyclopropyl-1H-1,2,3-triazole-4-carboxamide] | 11.1 |
| COc1ccc(Cn2cc(CN3CC(NC(=O)c4cn(C5CC5)nn4)C3)cn2)cc1 [compound 932, 1-cyclopropyl-N-(1-((1-(4-methoxybenzyl)-1H-pyrazol-4-yl)methyl)azetidin-3-yl)-1H-1,2,3-triazole-4-carboxamide] | 0.028 |
| O=C(NC1CN(Cc2cnn(Cc3ccccc3)c2)C1)c1cc(C2CC2)cnn1 [compound 933, N-(1-((1-benzyl-1H-pyrazol-4-yl)methyl)azetidin-3-yl)-5-cyclopropylpyridazine-3-carboxamide] | 0.0078 |
| COc1cccc(C(C)N2CC(NC(=O)c3cc(C4CC4)cnn3)C2)c1 (centres unmarked) [compound 934, 5-cyclopropyl-N-(1-(1-(3-methoxyphenyl)ethyl)azetidin-3-yl)pyridazine-3-carboxamide] | 0.69 |
| CC(c1ccc2nn(C)cc2c1)N1CC(NC(=O)c2cn(C3CC3)nn2)C1 (centres unmarked) [compound 935, 1-cyclopropyl-N-(1-(1-(2-methyl-2H-indazol-5-yl)ethyl)azetidin-3-yl)-1H-1,2,3-triazole-4-carboxamide] | 1.6 |
| O=C(NC1CN(Cc2cnn(Cc3ccc4scnc4c3)c2)C1)c1cn(C2CC2)nn1 [compound 936, N-(1-((1-(benzo[d]thiazol-5-ylmethyl)-1H-pyrazol-4-yl)methyl)azetidin-3-yl)-1-cyclopropyl-1H-1,2,3-triazole-4-carboxamide] | 0.08 |
| Cc1coc(Cn2cc(CN3CC(NC(=O)c4cn(C5CC5)nn4)C3)cn2)n1 [compound 937, 1-cyclopropyl-N-(1-((1-((4-methyloxazol-2-yl)methyl)-1H-pyrazol-4-yl)methyl)azetidin-3-yl)-1H-1,2,3-triazole-4-carboxamide] | 0.12 |
| COc1ccc(Cl)c(C(C)N2CC(NC(=O)c3cn(C4CC4)nn3)C2)c1 (centres unmarked) [compound 938, N-(1-(1-(2-chloro-5-methoxyphenyl)ethyl)azetidin-3-yl)-1-cyclopropyl-1H-1,2,3-triazole-4-carboxamide] | 0.13 |
| COc1cc(C(C)N2CC(NC(=O)c3cn(C4CC4)nn3)C2)ccc1OCc1ccccc1 (centres unmarked) [compound 939, N-(1-(1-(4-(benzyloxy)-3-methoxyphenyl)ethyl)azetidin-3-yl)-1-cyclopropyl-1H-1,2,3-triazole-4-carboxamide] | 3.6 |
| O=C(NC1CN(Cc2cn[nH]c2)C1)c1cn(C2CC2)nn1 [compound 940, N-(1-((1H-pyrazol-4-yl)methyl)azetidin-3-yl)-1-cyclopropyl-1H-1,2,3-triazole-4-carboxamide] | 7.7 |
| CSc1ccc(Cn2cc(CN3CC(NC(=O)c4cn(C5CC5)nn4)C3)cn2)cc1 [compound 941, 1-cyclopropyl-N-(1-((1-(4-(methylthio)benzyl)-1H-pyrazol-4-yl)methyl)azetidin-3-yl)-1H-1,2,3-triazole-4-carboxamide] | 0.028 |
| O=C(NC1CN(Cc2cnn(Cc3ccccc3Cl)c2)C1)c1cn(C2CC2)nn1 [compound 942, N-(1-((1-(2-chlorobenzyl)-1H-pyrazol-4-yl)methyl)azetidin-3-yl)-1-cyclopropyl-1H-1,2,3-triazole-4-carboxamide] | 0.11 |
| O=C(NC1CN(Cc2cnn(Cc3ccc(C(F)(F)F)cc3)c2)C1)c1cn(C2CC2)nn1 [compound 943, 1-cyclopropyl-N-(1-((1-(4-(trifluoromethyl)benzyl)-1H-pyrazol-4-yl)methyl)azetidin-3-yl)-1H-1,2,3-triazole-4-carboxamide] | 0.014 |
| O=C(NC1CN(Cc2cnn(Cc3ncco3)c2)C1)c1cn(C2CC2)nn1 [compound 944, 1-cyclopropyl-N-(1-((1-(oxazol-2-ylmethyl)-1H-pyrazol-4-yl)methyl)azetidin-3-yl)-1H-1,2,3-triazole-4-carboxamide] | 0.92 |
| O=C(NC1CN(Cc2cnn(Cc3cscn3)c2)C1)c1cn(C2CC2)nn1 [compound 945, 1-cyclopropyl-N-(1-((1-(thiazol-4-ylmethyl)-1H-pyrazol-4-yl)methyl)azetidin-3-yl)-1H-1,2,3-triazole-4-carboxamide] | 1.2 |
| CCn1cc(CN2CC(NC(=O)c3cn(C4CC4)nn3)C2)cn1 [compound 946, 1-cyclopropyl-N-(1-((1-ethyl-1H-pyrazol-4-yl)methyl)azetidin-3-yl)-1H-1,2,3-triazole-4-carboxamide] | 2 |
| CC(C)(C)c1ccc(Cn2cc(CN3CC(NC(=O)c4cn(C5CC5)nn4)C3)cn2)cc1 [compound 947, N-(1-((1-(4-(tert-butyl)benzyl)-1H-pyrazol-4-yl)methyl)azetidin-3-yl)-1-cyclopropyl-1H-1,2,3-triazole-4-carboxamide] | 0.056 |
